# Values quoted from earlier work as cited in patent US20080206335A1, “[…] CONTROLLED RELEASE SELECTIVE SEROTONIN […] INHIBITOR FORMULATIONS” (priority 1999, published 2008).
# Conditions: steady state after multiple oral doses of 100 mg/day, healthy young volunteers
smiles,measurement,value
"COCCCC/C(=N\OCCN)c1ccc(C(F)(F)F)cc1.O=C(O)/C=C\C(=O)O [fluvoxamine, 5-methoxy-4′-(trifluoromethyl)valerophenone-(E)-O-(2-aminoethyl) oxime maleate (1:1)]",plasma elimination half-life,15.6 h
